Assay results from the supplement of paper PMC5908809.

Key:
[1] = system: normal NK cells expanded with K562-aAPC; test: percent inhibition of viability; higher = more inhibition; conditions: 72 h, IL-2 2.5 ng/mL
Protocol: (§1)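 Drug sensitivity and resistance testing on K562-aAPC-expanded normal NK cells: 5 concentrations (10-fold steps over a 10,000-fold range), 72 h at 37 °C, viability by CellTiter-Glo normalised to DMSO and benzethonium chloride controls; DSS from the fitted curve.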

DERL-7 (IL-2 2.5 ng/mL) [2] = test: as above; conditions: 72 h
IMC-1 (IL-2 20 ng/mL) [3] = test: as above; conditions: 72 h
KAI3 (IL-2 2.5 ng/mL) [4] = test: as above; conditions: 72 h
KHYG-1 (IL-2 2.5 ng/mL) [5] = test: as above; conditions: 72 h
NK-92 (IL-2 2.5 ng/mL) [6] = test: as above; conditions: 72 h
NK-YS (IL-2 2.5 ng/mL) [7] = test: as above; conditions: 72 h
NKL (IL-2 2.5 ng/mL) [8] = test: as above; conditions: 72 h
SNK-6 (IL-2 2.5 ng/mL) [9] = test: as above; conditions: 72 h
YT (IL-2 2.5 ng/mL) [10] = test: as above; conditions: 72 h
[11] = system: normal primary NK cells, pool 1 (3 donors) (IL-2 2.5 ng/mL); test: as above; conditions: 72 h
[12] = system: normal primary NK cells, pool 1 (3 donors), resting (IL-2 0 ng/mL); test: as above; conditions: 72 h
[13] = system: normal primary NK cells, pool 2 (3 donors) (IL-2 2.5 ng/mL); test: as above; conditions: 72 h
[14] = system: normal primary NK cells, pool 3 (3 donors) (IL-2 2.5 ng/mL); test: as above; conditions: 72 h
[15] = system: normal NK cells expanded with K562-aAPC; test: drug sensitivity score (DSS) (DSS units); higher = more sensitive; extreme values may be limits of the assay; conditions: 72 h; IL-2 2.5 ng/mL
Protocol: as §1

DERL-7 (IL-2 2.5 ng/mL) [16] = test: as above; conditions: 72 h
IMC-1 (IL-2 20 ng/mL) [17] = test: as above; conditions: 72 h
KAI3 (IL-2 2.5 ng/mL) [18] = test: as above; conditions: 72 h
KHYG-1 (IL-2 2.5 ng/mL) [19] = test: as above; conditions: 72 h
NK-92 (IL-2 2.5 ng/mL) [20] = test: as above; conditions: 72 h
NK-YS (IL-2 2.5 ng/mL) [21] = test: as above; conditions: 72 h
NKL (IL-2 2.5 ng/mL) [22] = test: as above; conditions: 72 h
SNK-6 (IL-2 2.5 ng/mL) [23] = test: as above; conditions: 72 h
YT (IL-2 2.5 ng/mL) [24] = test: as above; conditions: 72 h
[25] = system: normal primary NK cells, pool 1 (3 donors) (IL-2 2.5 ng/mL); test: as above; conditions: 72 h
[26] = system: normal primary NK cells, pool 1 (3 donors), resting (IL-2 0 ng/mL); test: as above; conditions: 72 h
[27] = system: normal primary NK cells, pool 2 (3 donors) (IL-2 2.5 ng/mL); test: as above; conditions: 72 h
[28] = system: normal primary NK cells, pool 3 (3 donors) (IL-2 2.5 ng/mL); test: as above; conditions: 72 h

CCn1c(-c2nonc2N)nc2c(C#CC(C)(C)O)ncc(OC[C@H]3CCCNC3)c21 (max concentration tested 10000 nM)
percent inhibition of viability [%]
Conditions | 1 nM | 10 nM | 100 nM | 1000 nM | 10000 nM
DERL-7 (IL-2 2.5 ng/mL) [2] | -2.25 | 7.79 | 17.3 | 63.7 | 76.9
IMC-1 (IL-2 20 ng/mL) [3] | -5.57 | 1.4 | -4.57 | -6.32 | -11.7
KAI3 (IL-2 2.5 ng/mL) [4] | 0.15 | -2.81 | 1.43 | 5.52 | -1.32
KHYG-1 (IL-2 2.5 ng/mL) [5] | -3.45 | -0.24 | -0.07 | 6.49 | 7.82
NK-92 (IL-2 2.5 ng/mL) [6] | -4.48 | -3.46 | -8.79 | -1.49 | 26.3
NK-YS (IL-2 2.5 ng/mL) [7] | -2.15 | 0.74 | -0.26 | 2.64 | -8.44
NKL (IL-2 2.5 ng/mL) [8] | -5.47 | -17.8 | -8.99 | 0.96 | 9.13
SNK-6 (IL-2 2.5 ng/mL) [9] | 1.15 | 26.6 | -2.76 | -11.1 | -25.3
YT (IL-2 2.5 ng/mL) [10] | -1.14 | -1.15 | 0.26 | 5.9 | 9.45
[1] | -1.22 | -3.93 | -1.94 | 9.38 | 20.1
[11] | -8.01 | -9.66 | 4.32 | 9.43 | 76.3
[12] | -12.7 | -5.26 | 17.9 | 18.4 | 83.5
[13] | -2.46 | -9.24 | -1.71 | 8.35 | 69.8
[14] | -10.1 | -4.39 | -9.15 | 11.5 | 66.5

Conditions | drug sensitivity score
DERL-7 (IL-2 2.5 ng/mL) [16] | 13.9
IMC-1 (IL-2 20 ng/mL) [17] | 0
KAI3 (IL-2 2.5 ng/mL) [18] | 0
KHYG-1 (IL-2 2.5 ng/mL) [19] | 0
NK-92 (IL-2 2.5 ng/mL) [20] | 0.93
NK-YS (IL-2 2.5 ng/mL) [21] | 0
NKL (IL-2 2.5 ng/mL) [22] | 0
SNK-6 (IL-2 2.5 ng/mL) [23] | 0
YT (IL-2 2.5 ng/mL) [24] | 0
[15] | 1.58
[25] | 5.8
[26] | 7.29
[27] | 5.23
[28] | 5.55

CC[C@]1(O)C[C@@H]2CN(CCc3c([nH]c4ccccc34)[C@@](C(=O)OC)(c3cc4c(cc3OC)N(C)[C@H]3[C@@](O)(C(=O)OC)[C@H](OC(C)=O)[C@]5(CC)C=CCN6CC[C@]43[C@@H]65)C2)C1 [Vinblastine] (max concentration tested 1000 nM)
percent inhibition of viability [%]
Conditions | 0.1 nM | 1 nM | 10 nM | 100 nM | 1000 nM
DERL-7 (IL-2 2.5 ng/mL) [2] | -13.4 | -1.94 | 99.7 | 101 | 99.8
IMC-1 (IL-2 20 ng/mL) [3] | -4.96 | -7.43 | 99.5 | 101 | 100
KAI3 (IL-2 2.5 ng/mL) [4] | -16.5 | -7.66 | 45.5 | 71.1 | 82.4
KHYG-1 (IL-2 2.5 ng/mL) [5] | -4.6 | -0.24 | 96.7 | 108 | 110
NK-92 (IL-2 2.5 ng/mL) [6] | -11.5 | -1.18 | 64.9 | 100 | 107
NK-YS (IL-2 2.5 ng/mL) [7] | -5.37 | -3.92 | 70.7 | 69.4 | 90.8
NKL (IL-2 2.5 ng/mL) [8] | -3.5 | 4.6 | 90.8 | 97.5 | 102
SNK-6 (IL-2 2.5 ng/mL) [9] | -13.4 | -12.2 | 83.3 | 91.1 | 97.8
YT (IL-2 2.5 ng/mL) [10] | -6.33 | -5.56 | 88.8 | 105 | 107
[1] | -6.33 | -1.7 | 26.7 | 60.2 | 63
[11] | -10.7 | 7.03 | 4.09 | 14.3 | 22.7
[12] | -21.5 | 2.75 | -2.96 | 17.9 | 28.1
[13] | -6.34 | 7.02 | 16.6 | 16.1 | 23.6
[14] | -4.89 | 5.36 | 12.3 | 3.78 | 13.7

Conditions | drug sensitivity score
DERL-7 (IL-2 2.5 ng/mL) [16] | 30.2
IMC-1 (IL-2 20 ng/mL) [17] | 29.8
KAI3 (IL-2 2.5 ng/mL) [18] | 20.6
KHYG-1 (IL-2 2.5 ng/mL) [19] | 30
NK-92 (IL-2 2.5 ng/mL) [20] | 25.6
NK-YS (IL-2 2.5 ng/mL) [21] | 24.6
NKL (IL-2 2.5 ng/mL) [22] | 29.5
SNK-6 (IL-2 2.5 ng/mL) [23] | 27.2
YT (IL-2 2.5 ng/mL) [24] | 28.4
[15] | 14.7
[25] | 1.97
[26] | 3.19
[27] | 4.33
[28] | 0.31
